In brackets after ≈: the same amount, converted by molar mass.
How the values were obtained:
Assay type in all cases: cell-based
[1] = test system: Gn-III: Ps. aeruginosa (7); assay: MIC, two-fold serial agar dilution, Gn-III; conditions: Pseudomonas aeruginosa, Gn-III, 7 strains; Mueller-Hinton agar; read-out: Geometric mean of MIC
Procedure: (§1) Minimum inhibitory concentrations (MICs) of the present series of cephalosporins were determined against 32 strains of test organisms by two-fold serial agar dilution method in Mueller-Hinton agar. Geometric means of MICs were calculated against six groups of the test organisms which are classified as follows and summarized in Table 1.
Gn-III Ps. aeruginosa (7).

[2] = test system: Gn-Ia: Cephalothin(CET)-sensitive E. coli (2), Kl. pneumoniae (1) and Pr. mirabilis (2); assay: MIC, two-fold serial agar dilution, Gn-Ia; conditions: 5 strains, Mueller-Hinton agar, read-out: Geometric mean of MIC
Procedure: as §1
Gn-Ia Cephalothin(CET)-sensitive E. coli (2), Kl.
pneumoniae (1) and Pr. mirabilis (2).

[3] = test system: Gn-II: M.morganii (1), Ent. cloacae (2) and Ser. marcescens (2); assay: MIC, two-fold serial agar dilution, Gn-II; conditions: Gn-II, 5 strains; Mueller-Hinton agar; read-out: Geometric mean of MIC
Procedure: as §1
Gn-II M.morganii (1), Ent. cloacae (2) and Ser.

[4] = test system: Gp-Ib: Penicillin(PC)-resistant S. aureus (5); assay: MIC, two-fold serial agar dilution, Gp-Ib; conditions: Staphylococcus aureus, 5 strains, Mueller-Hinton agar, read-out: Geometric mean of MIC
Procedure: as §1
Gp-Ib Penicillin(PC)-resistant S. aureus (5).

[5] = test system: Gn-Ib: Cephalothin(CET)-resistant E. coli (3) and Kl. pneumoniae (2); assay: MIC, two-fold serial agar dilution, Gn-Ib; conditions: Escherichia coli, read-out: Geometric mean of MIC, Gn-Ib, 5 strains; Mueller-Hinton agar
Procedure: as §1
Gn-Ib Cephalothin(CET)-resistant E. coli (3) and Kl.

[6] = test system: Gp-Ia: Penicillin(PC)-sensitive S. aureus (5 strains); assay: MIC, two-fold serial agar dilution, Gp-Ia; conditions: Staphylococcus aureus, Mueller-Hinton agar, read-out: Geometric mean of MIC
Procedure: as §1
Gp-Ia Penicillin(PC)-sensitive S. aureus (5 strains).

[7] = test system: P. cepacia A21213; assay: MIC, agar dilution; conditions: Burkholderia cepacia, Mueller-Hinton agar pH 7.2, 32° C., 18 hr, 10^6 cells/ml
Procedure: as §1
(§2) Medium; MuellerHinton agar (pH = 7.2)
(§3) Incubation temperature: 32° C., 18 hr
(§4) Inoculum size; 10^6 cells/ml

[8] = test system: S. marcescens IPM-16; assay: MIC, agar dilution; conditions: Serratia marcescens, IPM16, Mueller-Hinton agar pH 7.2, 32° C., 18 hr, 10^6 cells/ml
Procedure: as §1, §2, §3, §4

[9] = test system: P. rettgeri IPM-14; assay: MIC, agar dilution; conditions: Providencia rettgeri, IPM14, Mueller-Hinton agar pH 7.2, 32° C., 18 hr, 10^6 cells/ml
Procedure: as §1, §2, §3, §4

[10] = test system: S. aureus IPM-24 (MRSA); assay: MIC, agar dilution; conditions: Staphylococcus aureus, Mueller-Hinton agar pH 7.2, 32° C., 18 hr, 10^6 cells/ml
Procedure: as §1, §2, §3, §4

[11] = test system: E. cloacae IPM-12; assay: MIC, agar dilution; conditions: Enterobacter cloacae, IPM12, Mueller-Hinton agar pH 7.2, 32° C., 18 hr, 10^6 cells/ml
Procedure: as §1, §2, §3, §4

[12] = test system: X. maltophilia GN 12873; assay: MIC, agar dilution; conditions: Stenotrophomonas maltophilia, GN12873, Mueller-Hinton agar pH 7.2, 32° C., 18 hr, 10^6 cells/ml
Procedure: as §1, §2, §3, §4

[13] = test system: P. cepacia No. 651; assay: MIC, agar dilution; conditions: Burkholderia cepacia, Mueller-Hinton agar pH 7.2, 32° C., 18 hr, 10^6 cells/ml
Procedure: as §1, §2, §3, §4

[14] = test system: K. pneumoniae PCI 602; assay: MIC, agar dilution; conditions: Klebsiella pneumoniae, PCI602, Mueller-Hinton agar pH 7.2, 32° C., 18 hr, 10^6 cells/ml
Procedure: as §1, §2, §3, §4

[15] = test system: C. freundii GN 7391; assay: MIC, agar dilution; conditions: Citrobacter freundii, GN7391, Mueller-Hinton agar pH 7.2, 32° C., 18 hr, 10^6 cells/ml
Procedure: as §1, §2, §3, §4

[16] = test system: C. terrigena IFO 12685; assay: MIC, agar dilution; conditions: Mueller-Hinton agar pH 7.2, 32° C., 18 hr, 10^6 cells/ml
Procedure: as §1, §2, §3, §4

[17] = test system: P. mirabilis IFO-2849; assay: MIC, agar dilution; conditions: Proteus mirabilis, IFO2849, Mueller-Hinton agar pH 7.2, 32° C., 18 hr, 10^6 cells/ml
Procedure: as §1, §2, §3, §4

[18] = test system: M. morgani 1510/9; assay: MIC, agar dilution; conditions: Mueller-Hinton agar pH 7.2, 32° C., 18 hr, 10^6 cells/ml
Procedure: as §1, §2, §3, §4

[19] = test system: S. marcescens IPM-15; assay: MIC, agar dilution; conditions: Serratia marcescens, IPM15, Mueller-Hinton agar pH 7.2, 32° C., 18 hr, 10^6 cells/ml
Procedure: as §1, §2, §3, §4

[20] = test system: P. aeruginosa A20599; assay: MIC, agar dilution; conditions: Pseudomonas aeruginosa, Mueller-Hinton agar pH 7.2, 32° C., 18 hr, 10^6 cells/ml
Procedure: as §1, §2, §3, §4

[21] = test system: B. subtilis PCI 219; assay: MIC, agar dilution; conditions: Bacillus subtilis, PCI219, Mueller-Hinton agar pH 7.2, 32° C., 18 hr, 10^6 cells/ml
Procedure: as §1, §2, §3, §4

[22] = test system: E. faecium A24817; assay: MIC, agar dilution; conditions: Enterococcus faecium, Mueller-Hinton agar pH 7.2, 32° C., 18 hr, 10^6 cells/ml
Procedure: as §1, §2, §3, §4

[23] = test system: P. vulgaris IPM-13; assay: MIC, agar dilution; conditions: Proteus vulgaris, IPM13, Mueller-Hinton agar pH 7.2, 32° C., 18 hr, 10^6 cells/ml
Procedure: as §1, §2, §3, §4

[24] = test system: E. faecalis A9808; assay: MIC, agar dilution; conditions: Enterococcus faecalis, Mueller-Hinton agar pH 7.2, 32° C., 18 hr, 10^6 cells/ml
Procedure: as §1, §2, §3, §4

[25] = test system: S. epidermidis 11-1230; assay: MIC, agar dilution; conditions: Staphylococcus epidermidis, 111230, Mueller-Hinton agar pH 7.2, 32° C., 18 hr, 10^6 cells/ml
Procedure: as §1, §2, §3, §4

[26] = test system: P. aeruginosa IPM-9; assay: MIC, agar dilution; conditions: Pseudomonas aeruginosa, IPM9, Mueller-Hinton agar pH 7.2, 32° C., 18 hr, 10^6 cells/ml
Procedure: as §1, §2, §3, §4

[27] = test system: E. coli 255; assay: MIC, agar dilution; conditions: Escherichia coli, Mueller-Hinton agar pH 7.2, 32° C., 18 hr, 10^6 cells/ml
Procedure: as §1, §2, §3, §4

[28] = test system: P. aeruginosa KKA 19; assay: MIC, agar dilution; conditions: Pseudomonas aeruginosa, KKA19, Mueller-Hinton agar pH 7.2, 32° C., 18 hr, 10^6 cells/ml
Procedure: as §1, §2, §3, §4

[29] = test system: S. aureus 4-1015 (MRSA); assay: MIC, agar dilution; conditions: Staphylococcus aureus, Mueller-Hinton agar pH 7.2, 32° C., 18 hr, 10^6 cells/ml
Procedure: as §1, §2, §3, §4

[30] = test system: M. luteus 1001; assay: MIC, agar dilution; conditions: Micrococcus luteus, Mueller-Hinton agar pH 7.2, 32° C., 18 hr, 10^6 cells/ml
Procedure: as §1, §2, §3, §4

[31] = test system: S. aureus 209P; assay: MIC, agar dilution; conditions: Staphylococcus aureus; S. aureus 209P; Mueller-Hinton agar pH 7.2; 32° C., 18 hr; 10^6 cells/ml; read-out: MIC
Procedure: as §1, §2, §3, §4

[32] = test system: X. maltophilia No. 661; assay: MIC, agar dilution; conditions: Stenotrophomonas maltophilia, Mueller-Hinton agar pH 7.2, 32° C., 18 hr, 10^6 cells/ml
Procedure: as §1, §2, §3, §4

[33] = test system: P. aeruginosa IPM-8; assay: MIC, agar dilution; conditions: Pseudomonas aeruginosa, IPM8, Mueller-Hinton agar pH 7.2, 32° C., 18 hr, 10^6 cells/ml
Procedure: as §1, §2, §3, §4

[34] = test system: M. morgani 1510; assay: MIC, agar dilution; conditions: Mueller-Hinton agar pH 7.2, 32° C., 18 hr, 10^6 cells/ml
Procedure: as §1, §2, §3, §4

[35] = test system: S. aureus Smith; assay: MIC, agar dilution; conditions: Staphylococcus aureus; S. aureus Smith; Mueller-Hinton agar pH 7.2; 32° C., 18 hr; 10^6 cells/ml; read-out: MIC
Procedure: as §1
(§5) In vivo antibacterial activity was determined against three bacterial infections (S. aureus Smith, E. coli Juhl and P. aeruginosa A9843A) by intramuscular administration to mice just after the bacterial challenge. PD50 values are summarized in Table 3 in comparsion with the MIC values against the corresponding organisms.
as §2, §3, §4

[36] = test system: E. coli Juhl A15119; assay: MIC, agar dilution; conditions: Escherichia coli, JUHLA15119; E. coli Juhl A15119; Mueller-Hinton agar pH 7.2; 32° C., 18 hr; 10^6 cells/ml; read-out: MIC
Procedure: as §1, §5, §2, §3, §4

[37] = test system: P. aeruginosa A9843A; assay: MIC, agar dilution; conditions: Pseudomonas aeruginosa, A9843A, 18 h, pH 7.2
Procedure: as §1, §5, §2, §3, §4

C[N+]1(C/C=C/C2=C(C(=O)[O-])N3C(=O)C(NC(=O)/C(=N\OCC(=O)O)c4csc(N)n4)C3SC2)Cc2cc(O)c(O)cc2C1 (stereo not shown) [Ih, 7-[(Z)-2-(2-Aminothiazol-4-yl)-2-carboxymethoxyimino-acetamido]-3-[3-(E)-(5,6-hydroxy-2-methyl-2-isoindolinio)-1-propen-1-yl]-3-cephem-4-carboxylate]
MIC [1]: 0.49 µg/mL (≈ 0.777 µM) | MIC [2]: 0.2 µg/mL (≈ 0.317 µM) | MIC [3]: 1.1 µg/mL (≈ 1.74 µM) | MIC [4]: 12.5 µg/mL (≈ 19.8 µM) | MIC [5]: 0.4 µg/mL (≈ 0.634 µM) | MIC [6]: 7.2 µg/mL (≈ 11.4 µM)

CC(C)(O/N=C(\C(=O)NC1C(=O)N2C(C(=O)[O-])=C(/C=C/C[n+]3cc4cc(O)c(O)cc4cn3)CS[C@H]12)c1csc(N)n1)C(=O)O (stereo partly shown) [Ii, 7-[(Z)-2-(2-Aminothiazol-4-yl)-2-(1-methyl-1-carboxyethoxy-imino)acetamido]-3-[(E)-3-(6,7-dihydroxyphthalazin-2-io)-1-propen-1-yl]-3-cephem-4-carboxylate]
MIC [7]: 0.8 µg/mL (≈ 1.22 µM) | MIC [8]: 1.6 µg/mL (≈ 2.44 µM) | MIC [9]: 0.1 µg/mL (≈ 0.153 µM) | MIC [10]: > 100 µg/mL | MIC [11]: 0.8 µg/mL (≈ 1.22 µM) | MIC [12]: 100 µg/mL (≈ 153 µM) | MIC [13]: 1.6 µg/mL (≈ 2.44 µM) | MIC [14]: < 0.0063 µg/mL | MIC [15]: 25 µg/mL (≈ 38.1 µM) | MIC [16]: 0.8 µg/mL (≈ 1.22 µM) | MIC [17]: 0.025 µg/mL (≈ 0.0381 µM) | MIC [18]: 0.05 µg/mL (≈ 0.0763 µM) | MIC [19]: > 100 µg/mL | MIC [20]: 0.2 µg/mL (≈ 0.305 µM) | MIC [21]: 12.5 µg/mL (≈ 19.1 µM) | MIC [22]: > 100 µg/mL | MIC [23]: 12.5 µg/mL (≈ 19.1 µM) | MIC [24]: > 100 µg/mL | MIC [25]: 25 µg/mL (≈ 38.1 µM) | MIC [26]: > 100 µg/mL | MIC [27]: 0.013 µg/mL (≈ 0.0198 µM) | MIC [28]: 0.8 µg/mL (≈ 1.22 µM) | MIC [29]: > 100 µg/mL | MIC [30]: 3.1 µg/mL (≈ 4.73 µM) | MIC [31]: 25 µg/mL (≈ 38.1 µM) | MIC [32]: 50 µg/mL (≈ 76.3 µM) | MIC [33]: 0.2 µg/mL (≈ 0.305 µM) | MIC [34]: 0.8 µg/mL (≈ 1.22 µM) | MIC [35]: 25 µg/mL (≈ 38.1 µM) | MIC [36]: 0.2 µg/mL (≈ 0.305 µM) | MIC [37]: 0.1 µg/mL (≈ 0.153 µM)
